Columns and labels:
phenylquinone writhing = assay: Phenylquinone writhing test (analgesic activity); format: in vivo, female white mice; conditions: Mus musculus; oral in 1% methylcellulose, fasted mice, observed from 30 minutes after dosing for 10 minutes; effective analgesic dose for 50% of the mice; read-out: PQW ED50
Description: A procedure for detecting and comparing the analgesic activity of compounds in this series and standard drugs for which there is a good correlation with human efficacy is the phenylquinone writhing test.
The phenylquinone writhing test, modified from Siegmund, et al., Proc. Soc. Exp. Biol. Med. 95, 729 (1957), was employed. A test compound suspended in 1% methylcellulose was given orally to fasted (17-21 hours) female white mice, 5-20 animals per double blind test. Aqueous (0.01% phenyl-p-benzoquinone) phenylquinone was injected intraperitoneally 24 minutes later using 0.20 ml per mouse. […] The effective analgesic dose for 50% of the mice (ED50) was calculated by the moving average method of Thompson, W. R., Bact. Rev., 11, 115-145 (1947).

[1] = system: Adjuvant-Induced Arthritis in Rats; assay: Established adjuvant-induced arthritis in rats (antiinflammatory activity, paw volume); format: in vivo, Charles River Lewis male rats; conditions: oral by gavage, that day and 6 following days; for AA % Reduction @ 27 mg/kg: % reduction in paw volume at 27 mg/kg, * p <0.05 (Examples 2, 3, 6), ** p >0.1 (Example 9) compared to control
Description: A procedure for detecting and comparing the antiinflammatory activity of compounds in this series and standard drugs for which there is a good correlation with human efficacy is the adjuvant-induced arthritis test in rats.
Charles River Lewis male rats (130-150 grams) are injected subcutaneously in plantar area of the right hind paw with 0.1 ml of adjuvant (Difco heat-killed, lyophilized Mycobacterium butyricum suspended in mineral oil 5 mg/ml). 20 Non-arthritic controls are injected with mineral oil. The animals are held for 2 weeks to allow development of arthritis. Paw volumes (uninjected, left hind paw) are measured and the adjuvant injected rats are culled and distributed to treatment groups of 10 of equal disease severity. Non-arthritic controls are distributed to 2 groups of 10. The rats are given oral doses of compound or PVA-Acacia (Polyvinyl Alcohol 1%, Gum Acacia, U.S.P. 5%, Methylparaben 0.5%) (10 ml/kg) by gavage on that day and on the 6 following days. One day after the last dose the paw volumes (uninjected, left hind paw) are measured using a Ugo Basile Volume Differential Meter Model 7101. [formula]
Dose-response regression lines of the % decrease are plotted on semi-log paper by visual fit and the ED50% decrease from control paw volume is determined by inspection. Alternatively, % reduction in paw volume was measured at a dose of 27 mg/kg.

## COc1ccc(-c2cnc(SC(F)(F)C(F)F)nc2-c2ccc(OC)cc2)cc1 [Example 1, 2-(1,1,2,2-Tetrafluoroethylthio)-4,5-bis(4-methoxyphenyl)pyrimidine]
Phenylquinone writhing
  ED50: > 108 mg/kg
[1]; Rattus norvegicus, ED50% decrease from control paw volume, uninjected left hind paw, read-out: AA ED50
  ED50: 25 mg/kg

## Fc1ccc(-c2cnc(SC(F)(F)F)nc2-c2ccc(F)cc2)cc1 [Example 2, 2-Trifluoromethylthio-4,5-bis(4-fluorophenyl)-pyrimidine]
Phenylquinone writhing
  ED50: > 108 mg/kg
[1]
  AA % Reduction @ 27 mg/kg: 37%

## COc1ccc(-c2nc(SC)ncc2-c2ccc(Cl)cc2)cc1 [Example 3, 2-Methylthio-4-(4-methoxyphenyl)-5-(4-chlorophenyl)-pyrimidine]
Phenylquinone writhing
  ED50: > 108 mg/kg
[1]
  AA % Reduction @ 27 mg/kg: 39%

## Fc1ccc(-c2cnc(SC(F)(F)C(F)F)nc2-c2ccc(F)cc2)cc1 [Example 4]
Phenylquinone writhing
  ED50: 45 mg/kg
[1]
  AA % Reduction @ 27 mg/kg: 0%

## COc1ccc(-c2cnc(SC(F)(F)F)nc2-c2ccc(OC)cc2)cc1 [Example 6]
Phenylquinone writhing
  ED50: 48 mg/kg
[1]
  AA % Reduction @ 27 mg/kg: 32%

## COc1ccc(-c2nc(SC(F)(F)F)ncc2-c2ccc(Cl)cc2)cc1 [Example 7]
Phenylquinone writhing
  ED50: 49 mg/kg
[1]
  AA % Reduction @ 27 mg/kg: 0%

## COc1ccc(-c2cnc(SC)nc2-c2ccc(OC)cc2)cc1 [Example 9]
Phenylquinone writhing
  ED50: 108 mg/kg
[1]
  AA % Reduction @ 27 mg/kg: 16%
